# Reference: ChEMBL document CHEMBL3351858, “Opioids and efflux transporters. Part 4: influence of N-substitution on P-glycoprotein substrate activity of noroxymorphone analogues” (Bioorg Med Chem Lett, 2014)
# The source made the active and inactive calls. The rule behind the calls is not given here.
# Species: Homo sapiens
# Test: Activity at human P-glycoprotein assessed as ATPase activity using firefly luciferase at 200 uM by Pgp-Glo assay in presence of MgATP
row,SMILES,Activity
1,C=CCN1CC[C@]23c4c5ccc(O)c4O[C@H]2C(=O)CC[C@@]3(O)[C@H]1C5,inactive
2,C=C(C)CN1CC[C@]23c4c5ccc(O)c4O[C@H]2C(=O)CC[C@@]3(O)[C@H]1C5,Active
3,O=C1CC[C@@]2(O)[C@H]3Cc4ccc(O)c5c4[C@@]2(CCN3Cc2ccccc2)[C@H]1O5,Active
4,CN1CC[C@]23c4c5ccc(O)c4O[C@H]2C(=O)CC[C@@]3(O)[C@H]1C5,inactive
5,O=C1CC[C@@]2(O)[C@H]3Cc4ccc(O)c5c4[C@@]2(CCN3CC2CC2)[C@H]1O5,inactive
6,C/C=C/CN1CC[C@]23c4c5ccc(O)c4O[C@H]2C(=O)CC[C@@]3(O)[C@H]1C5,Active
7,O=C1CC[C@@]2(O)[C@H]3Cc4ccc(O)c5c4[C@@]2(CCN3CCc2ccccc2)[C@H]1O5,Active
8,O=C1CC[C@@]2(O)[C@H]3Cc4ccc(O)c5c4[C@@]2(CCN3CCCc2ccccc2)[C@H]1O5,Active
9,CC(C)=CCN1CC[C@]23c4c5ccc(O)c4O[C@H]2C(=O)CC[C@@]3(O)[C@H]1C5,inactive
